Data on eleven molecules can be found in patent publication US7902327B2, “Dendrimeric peptides, pharmaceutical compositions and methods of using the same” (New York University School of Medicine, priority 2007, dated 2011).

Converted amounts (≈) assume the structure as drawn. Where a SMILES comes first, the peptide text is derived from it. Where no end group is shown, it is not given here. Side-chain parts run from the residue outwards. [ ]: non-standard residue; d: D form. The star is where a group is joined. Lys(α,ε-(ArgTrp)2) = N=C(N)NCCC[C@H](N)C(=O)N[C@@H](Cc1c[nH]c2ccccc12)C(=O)NCCCC[C@H](NC(=O)[C@H](Cc1c[nH]c2ccccc12)NC(=O)[C@@H](N)CCCNC(=N)N)C(=O)*; NHBn = c1ccc(CN*)cc1; OBn = c1ccc(CO*)cc1; βAla = NCCC(=O)O

Experiment [1] deals with multi-drug resistant strain S. aureus. The conditions noted are these: salt not stated.
Experiment [2] has as its system Acinetobacter. baumannii (ATCC BAA-747).
The subject of experiment [3] is B. anthracis (32F2 Sterne).
Another experiment has as its system B. Subtilis (ATCC 6633). To be noted: ATCC 6633.
Experiment [4] has as its system ampicillin- and streptomycin-resistant E. coli (D31). The conditions noted are these: salt not stated.
The subject of a further experiment is E. coli RP437 biofilms. The experiment is described as follows: biofilm assay on stainless steel coupons with LIVE/DEAD staining. Type of experiment: cell-based. To be noted: for Biofilm coefficients: Dead cells / Biofilm coefficients: Live cells / Biofilm coefficients: Total biofilms: 24 hours. On the procedure:
The stainless steel (S.S.) coupons were polished using a fine 3M SandBlaster sandpaper, then autoclaved for sterilization. […] For all the treatments, duplicate coupons were tested. To analyze the E. coli biofilms using fluorescence microscopy, the biofilms were stained with […] bacterial viability kit (Cat# L7012, Invitrogen Corporation, California). Each S.S. coupon was washed gently by dipping vertically in 0.85% NaCl buffer three times (change to fresh buffer after each dipping). Then, they were soaked in 1 mL of 0.85% NaCl buffer containing 3 μl of staining component A and B (1:4) in the dark for 15 mins. Images were taken by AXIO Imager.M1 (Carl Zeiss, German). Five images were taken for each sample. Data were obtained and are presented in Table 3, below, as well as in FIG. 5.

Turning to `N=C(N)NCCC[C@H](N)C(=O)N[C@@H](Cc1c[nH]c2ccccc12)C(=O)NCCCC[C@H](NC(=O)[C@H](Cc1c[nH]c2ccccc12)NC(=O)[C@@H](N)CCCNC(=N)N)C(=O)NCCCC[C@H](NC(=O)[C@H](CCCCNC(=O)[C@H](Cc1c[nH]c2ccccc12)NC(=O)[C@@H](N)CCCNC(=N)N)NC(=O)[C@H](Cc1c[nH]c2ccccc12)NC(=O)[C@@H](N)CCCNC(=N)N)C(=O)NCCC(=O)NCc1ccccc1` [(RW)4D-Benzyl amine] (H-RWK([Trp-Arg])K(Lys(α,ε-(ArgTrp)2))[βAla]-NHBn), the “MIC50 S. aureus” value in experiment [1] is 37.8 µg/mL. Also, the “MIC50 A. baumannii” value in experiment [2] was 121 µg/mL (≈ 62.6 µM). In addition, the “MIC50 B. anthracis” value in experiment [3] was determined as 34.8 µg/mL (≈ 18 µM). The “MIC50 B. subtilis” value in the experiment with B. Subtilis (ATCC 6633) worked out at 5.0 µg/mL (≈ 2.59 µM). Besides, the “MIC50 E. coli D31” value in experiment [4] amounted to 21.3 µg/mL. The “MIC50 E. coli” value in the experiment on E. coli stood at 12.8 µg/mL (≈ 6.62 µM).
As for `N=C(N)NCCC[C@H](N)C(=O)N[C@@H](Cc1c[nH]c2ccccc12)C(=O)NCCCC[C@H](NC(=O)[C@H](Cc1c[nH]c2ccccc12)NC(=O)[C@@H](N)CCCNC(=N)N)C(=O)NCCCC[C@H](NC(=O)[C@H](CCCCNC(=O)[C@H](Cc1c[nH]c2ccccc12)NC(=O)[C@@H](N)CCCNC(=N)N)NC(=O)[C@H](Cc1c[nH]c2ccccc12)NC(=O)[C@@H](N)CCCNC(=N)N)C(=O)NCCC(=O)OCc1ccccc1` [(RW)4D-Benzyl ester] (H-RWK([Trp-Arg])K(Lys(α,ε-(ArgTrp)2))[βAla]-OBn), in experiment [1], the “MIC50 S. aureus” value was found to be 19.6 µg/mL. Besides, the “MIC50 A. baumannii” value in experiment [2] turned out to be 78.7 µg/mL (≈ 40.7 µM). Moreover, in experiment [3], the “MIC50 B. anthracis” value turned out to be 34.2 µg/mL (≈ 17.7 µM). In the experiment on B. Subtilis (ATCC 6633), the “MIC50 B. subtilis” value was found to be 6.8 µg/mL (≈ 3.52 µM). In addition, in experiment [4], the “MIC50 E. coli D31” value was found to be 29.7 µg/mL. Besides, the “MIC50 E. coli” value against E. coli turned out to be 14.3 µg/mL (≈ 7.4 µM).
As to `NC(=O)CCNC(=O)[C@H](CCCCNC(=O)[C@H](CCCCNC(=O)[C@H](Cc1c[nH]c2ccccc12)NC(=O)[C@@H](N)Cc1c[nH]cn1)NC(=O)[C@H](Cc1c[nH]c2ccccc12)NC(=O)[C@@H](N)Cc1c[nH]cn1)NC(=O)[C@H](CCCCNC(=O)[C@H](Cc1c[nH]c2ccccc12)NC(=O)[C@@H](N)Cc1c[nH]cn1)NC(=O)[C@H](Cc1c[nH]c2ccccc12)NC(=O)[C@@H](N)Cc1c[nH]cn1` [Den(HW)4D], in experiment [2], the “MIC50 A. baumannii” value was 82.7 µg/mL (≈ 46.8 µM). Besides, in the experiment on E. coli, the “MIC50 E. coli” value stood at 30.6 µg/mL (≈ 17.3 µM).
`NCCCC[C@H](N)C(=O)N[C@@H](Cc1ccccc1)C(=O)NCCCC[C@H](NC(=O)[C@H](Cc1ccccc1)NC(=O)[C@@H](N)CCCCN)C(=O)NCCCC[C@H](NC(=O)[C@H](CCCCNC(=O)[C@H](Cc1ccccc1)NC(=O)[C@@H](N)CCCCN)NC(=O)[C@H](Cc1ccccc1)NC(=O)[C@@H](N)CCCCN)C(=O)NCCC(N)=O` [Den(KF)4D]: the “MIC50 S. aureus” value in experiment [1] was found to be 145 µg/mL. In experiment [2], the “MIC50 A. baumannii” value worked out at 175 µg/mL (≈ 111 µM). The “MIC50 E. coli” value against E. coli stood at 77 µg/mL (≈ 48.9 µM).
For `NCCCC[C@H](N)C(=O)N[C@@H](Cc1c[nH]c2ccccc12)C(=O)NCCCC[C@H](NC(=O)[C@H](Cc1c[nH]c2ccccc12)NC(=O)[C@@H](N)CCCCN)C(=O)NCCCC[C@H](NC(=O)[C@H](CCCCNC(=O)[C@H](Cc1c[nH]c2ccccc12)NC(=O)[C@@H](N)CCCCN)NC(=O)[C@H](Cc1c[nH]c2ccccc12)NC(=O)[C@@H](N)CCCCN)C(=O)NCCC(N)=O` [Den(KW)4D], the “MIC50 S. aureus” value in experiment [1] came out at 23.3 µg/mL. For the same molecule, the “MIC50 A. baumannii” value in experiment [2] came out at 52 µg/mL (≈ 30.1 µM). For the same molecule, the “MIC50 E. coli” value against E. coli turned out to be 30.6 µg/mL (≈ 17.7 µM).
As to `NCCCC[C@H](N)C(=O)N[C@@H](Cc1ccc(O)cc1)C(=O)NCCCC[C@H](NC(=O)[C@H](Cc1ccc(O)cc1)NC(=O)[C@@H](N)CCCCN)C(=O)NCCCC[C@H](NC(=O)[C@H](CCCCNC(=O)[C@H](Cc1ccc(O)cc1)NC(=O)[C@@H](N)CCCCN)NC(=O)[C@H](Cc1ccc(O)cc1)NC(=O)[C@@H](N)CCCCN)C(=O)NCCC(N)=O` [Den(KY)4D], in experiment [1], the “MIC50 S. aureus” value was 240 µg/mL. Besides, in experiment [2], the “MIC50 A. baumannii” value worked out at 360 µg/mL (≈ 220 µM). In addition, the “MIC50 E. coli” value in the experiment on E. coli was found to be 84.4 µg/mL (≈ 51.5 µM).
`N=C(N)NCCC[C@H](N)C(=O)N[C@@H](Cc1ccc2ccccc2c1)C(=O)NCCCC[C@H](NC(=O)[C@H](Cc1ccc2ccccc2c1)NC(=O)[C@@H](N)CCCNC(=N)N)C(=O)NCCCC[C@H](NC(=O)[C@H](CCCCNC(=O)[C@H](Cc1ccc2ccccc2c1)NC(=O)[C@@H](N)CCCNC(=N)N)NC(=O)[C@H](Cc1ccc2ccccc2c1)NC(=O)[C@@H](N)CCCNC(=N)N)C(=O)NCCC(N)=O` [Den(R-2Nal)4D]: in experiment [1], the “MIC50 S. aureus” value is 36.0 µg/mL. In addition, in experiment [2], the “MIC50 A. baumannii” value was found to be 51.3 µg/mL (≈ 27.2 µM). Moreover, the “MIC50 E. coli” value against E. coli amounted to 21.5 µg/mL (≈ 11.4 µM).
Turning to `N=C(N)NCCC[C@H](N)C(=O)N[C@@H](Cc1ccccc1)C(=O)NCCCC[C@H](NC(=O)[C@H](Cc1ccccc1)NC(=O)[C@@H](N)CCCNC(=N)N)C(=O)NCCCC[C@H](NC(=O)[C@H](CCCCNC(=O)[C@H](Cc1ccccc1)NC(=O)[C@@H](N)CCCNC(=N)N)NC(=O)[C@H](Cc1ccccc1)NC(=O)[C@@H](N)CCCNC(=N)N)C(=O)NCCC(N)=O` [Den(RF)4D], the “MIC50 S. aureus” value in experiment [1] was determined as 180 µg/mL. The “MIC50 A. baumannii” value in experiment [2] was 160 µg/mL (≈ 94.9 µM). Further, in the experiment with E. coli, the “MIC50 E. coli” value came out at 30 µg/mL (≈ 17.8 µM).
As for `N=C(N)NCCC[C@H](N)C(=O)NC(Cc1c[nH]c2ccc(F)cc12)C(=O)NCCCC[C@H](NC(=O)C(Cc1c[nH]c2ccc(F)cc12)NC(=O)[C@@H](N)CCCNC(=N)N)C(=O)NCCCC[C@H](NC(=O)[C@H](CCCCNC(=O)C(Cc1c[nH]c2ccc(F)cc12)NC(=O)[C@@H](N)CCCNC(=N)N)NC(=O)C(Cc1c[nH]c2ccc(F)cc12)NC(=O)[C@@H](N)CCCNC(=N)N)C(=O)NCCC(N)=O` (stereo partly shown) [Den(RW*)4D], the “MIC50 S. aureus” value in experiment [1] was determined as 13 µg/mL. In experiment [2], the “MIC50 A. baumannii” value worked out at 35 µg/mL (≈ 18.3 µM). In the experiment with E. coli, the “MIC50 E. coli” value worked out at 9.3 µg/mL (≈ 4.86 µM).
On to `N=C(N)NCCC[C@H](N)C(=O)N[C@@H](Cc1ccc(O)cc1)C(=O)NCCCC[C@H](NC(=O)[C@H](Cc1ccc(O)cc1)NC(=O)[C@@H](N)CCCNC(=N)N)C(=O)NCCCC[C@H](NC(=O)[C@H](CCCCNC(=O)[C@H](Cc1ccc(O)cc1)NC(=O)[C@@H](N)CCCNC(=N)N)NC(=O)[C@H](Cc1ccc(O)cc1)NC(=O)[C@@H](N)CCCNC(=N)N)C(=O)NCCC(N)=O` [Den(RY)4D], for which the “MIC50 S. aureus” value in experiment [1] was 45.7 µg/mL. Moreover, the “MIC50 A. baumannii” value in experiment [2] worked out at 193 µg/mL (≈ 110 µM). Besides, the “MIC50 E. coli” value against E. coli was 12.6 µg/mL (≈ 7.2 µM).
As for “RWRWRW-NH2 (C-terminus assumed) [Hexamer, reference compound]”, in the experiment on E. coli RP437 biofilms (25 μg/mL), the “Total biofilm formation compared with blank control (ANOVA)” value was “not significant”, the “Biofilm coefficients: Dead cells” value is reported as 12.29% ± 2.00%, the “Biofilm coefficients: Live cells” value is 5.18% ± 1.57% and the “Biofilm coefficients: Total biofilms” value was 17.49% ± 2.20%. Moreover, in the experiment with E. coli RP437 biofilms (50 μg/mL), the “Total biofilm formation compared with blank control (ANOVA)” value was “significantly reduced”, the “Biofilm coefficients: Dead cells” value was 12.22% ± 2.02%, the “Biofilm coefficients: Live cells” value is given as 4.25% ± 1.55% and the “Biofilm coefficients: Total biofilms” value is reported as 16.68% ± 2.11%.
